Source: patent publication US20230165888A1, “OLIGONUCLEOTIDE HAVING ANTI-INFLAMMATORY ACTIVITY” (priority 2019, published 2023)

Tests used:
Type in all cases: cell-based
[1] = system: BV2 cells, a mouse microglia cell line; assay: Pro-inflammatory cytokine gene expression in BV2 microglia (PCR); conditions: LPS 100 ng/ml + interferon-gamma 50 unit/ml, FIG. 5
Protocol: The expression amount of cytokines was confirmed by measuring the expression level of cytokine genes in the BV2 cells using conventional PCR analysis, and the specific method is as follows. Total ribonucleic acid (RNA) was extracted from the treated cells using a TRIZOL reagent (Invitrogen, Carlsbad, Calif., United States). Reverse transcription (RT) was carried out using Superscript II reverse transcriptase (Invitrogen) and oligo (dT) primers. PCR amplification was carried out in a C1000 Touch Thermal Cycler (Bio-Rad, Richmond, Calif., United States) at an annealing temperature of 55-60° C. in 25-32 cycles using specific primer sets. The PCR product having ethidium bromide was electrophoresed on a 1% agarose gel and irradiated with ultraviolet rays to observe bands.

[2] = system: mouse primary astrocytes; assay: NO production in mouse primary astrocytes stimulated with LPS + interferon-gamma; conditions: LPS 100 ng/ml + interferon-gamma 50 unit/ml, oligonucleotide after 2 hours, FIG. 6
Protocol: (§1) The prepared astrocytes were treated with LPS (100 ng/ml)+interferon-gamma (50 unit/ml) for inflammatory stimulation, and allowed to stand for 2 hours, and then treated with the oligonucleotide (15 bp Oligo25, SEQ ID NO: 11) to confirm the amount of NO produced and the expression amount of cytokines.

[3] = system: mouse primary chondrocytes; assay: Osteoarthritis marker gene expression in IL-1β-treated mouse primary chondrocytes (real-time PCR); conditions: oligonucleotide 10 ng/mL 2 hours, then IL-1β 6 hours, FIG. 8
[4] = system: BV2 cells, a mouse microglia cell line; assay: NO production in BV2 microglia stimulated with LPS + interferon-gamma; conditions: LPS 100 ng/ml + interferon-gamma 50 unit/ml, oligonucleotide after 2 hours, FIG. 4
[5] = system: mouse primary astrocytes; assay: Cytokine gene expression in mouse primary astrocytes (PCR); conditions: LPS 100 ng/ml + interferon-gamma 50 unit/ml, FIG. 7
Protocol: as §1
The expression amount of cytokines was confirmed by measuring the expression level of the cytokine genes using the conventional PCR analysis described in Example 5 above, and the concentration of cytokine proteins in the cell culture using Western blotting.

For “AGG GAG GGA GGG AGG (DNA AGGGAGGGAGGGAGG; listed as DNA, chemistry not given here) [15 bp Oligo25, 15 bp oligonucleotide with ratio of adenosine and guanosine 1:3]”, the “expression level of IL-1β gene” value [1] was “significantly reduced”, the “expression level of IL-6 gene” value [1] was “significantly reduced” and the “expression level of TNF-α gene” value [1] was “significantly reduced”. The NO production [2] was “NO production was reduced in proportion to the treatment concentration”, the “expression level of ADAMTS5 gene” value [3] was “increased” and the “expression level of MMP3 gene” value [3] was “reduced”. The “expression level of MMP9 gene” value [3] was “reduced”, the “expression level of MMP12 gene” value [3] was “reduced” and the “expression level of MMP13 gene” value [3] was “reduced”. The NO production [4] was “NO production was reduced in proportion to the treatment concentration”, the “expression level of IL-1β gene” value [5] was “significantly reduced” and the “expression level of IL-6 gene” value [5] was “significantly reduced”. For the same sequence, the “expression level of TNF-α gene” value [5] was “significantly reduced” and the “expression level of anti-inflammatory cytokine IL-10 gene” value [5] was “significantly increased”.
